Measurements as given in patent US20150175599A1, “FAAH Inhibitors” (Ironwood Pharmaceuticals, Inc., priority 2010, published 2015).
pIC50: −log10 of the molar value.

Assays:
human FAAH-1 = target: T1, human FAAH-1 (Homo sapiens, UniProt O00519); assay: Whole cell anandamide hydrolysis assay (HeLa clone 5c5 transfected with human FAAH-1); assay type: cell-based; settings: HeLa clone 5c5 expressing human FAAH-1; read-out: human FAAH whole cell IC50
T1 sequence (O00519 1-579): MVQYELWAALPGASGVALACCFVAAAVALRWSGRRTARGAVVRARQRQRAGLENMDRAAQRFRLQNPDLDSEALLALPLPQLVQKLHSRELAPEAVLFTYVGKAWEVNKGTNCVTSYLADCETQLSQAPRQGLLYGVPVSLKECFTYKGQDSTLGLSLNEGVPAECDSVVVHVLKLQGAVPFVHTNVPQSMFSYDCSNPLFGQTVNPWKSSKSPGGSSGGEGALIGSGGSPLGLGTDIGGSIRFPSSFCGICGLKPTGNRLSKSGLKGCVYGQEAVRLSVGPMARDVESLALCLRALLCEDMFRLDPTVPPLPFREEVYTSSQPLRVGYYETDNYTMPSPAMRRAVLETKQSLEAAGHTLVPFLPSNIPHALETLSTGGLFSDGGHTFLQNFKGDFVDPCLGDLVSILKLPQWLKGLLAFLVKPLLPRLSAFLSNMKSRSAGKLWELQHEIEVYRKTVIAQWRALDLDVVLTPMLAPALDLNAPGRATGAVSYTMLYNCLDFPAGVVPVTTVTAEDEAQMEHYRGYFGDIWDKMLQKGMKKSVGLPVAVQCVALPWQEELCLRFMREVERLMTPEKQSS
Summary of the method: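 Stable HeLa clone 5c5 expressing human FAAH-1, pre-incubated with compound 10 min at 37° C in DMEM/F12 with 15 mM HEPES pH 7.4 and 0.1% fatty-acid-free BSA. [3H]-anandamide (5 μM stock) added for 15 min; [3H]-ethanolamine separated on charcoal and counted. IC50 from curves constrained to 100% and 0%.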

[1] = Pharmacokinetic study, plasma level 2 hours after oral dosing in rats; assay type: in vivo
Summary of the method: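 Rats dosed by oral gavage in 1% DMA/99% Vitamin E TPGS; EDTA plasma taken by retro-orbital bleed 2 h post-dose. Acetonitrile precipitation with internal standard, LC/MS/MS quantitation against plasma standards 0.1–3000 ng/mL.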

SMILES | pIC50 (human FAAH-1) | 2 hr plasma level-ng/mL (rat, 10 mg/kg PO, 2 hr) [1]
COc1cc(NC(=O)C(=O)c2c(C)n(Cc3ccc(Cl)cc3)c3cccnc23)ccn1 [Compound 3, 2-(1-(4-chlorobenzyl)-2-methyl-1H-pyrrolo[3,2-b]pyridin-3-yl)-N-(2-methoxypyridin-4-yl)-2-oxoacetamide] | > 7.00 | –
COc1cc(NC(=O)C(=O)c2c(C)n(Cc3ccc(Cl)cc3)c3ccc(C(=O)O)cc23)ccn1 [Compound 4, 1-(4-chlorobenzyl)-3-(2-(2-methoxypyridin-4-ylamino)-2-oxoacetyl)-2-methyl-1H-indole-5-carboxylic acid] | 5.00 to 6.00 | –
COc1ccc2c(c1)c(C(=O)C(=O)Nc1ccnc(OC)c1)c(C)n2Cc1cccnc1 [Compound 78, 2-(5-methoxy-2-methyl-1-(pyridin-3-ylmethyl)-1H-indol-3-yl)-N-(2-methoxypyridin-4-yl)-2-oxoacetamide] | > 7.00 | –
COc1ccc2c(c1)c(C(=O)C(=O)Nc1ccnc(OC)c1)c(C)n2Cc1ccc(Cl)cn1 [Compound 79, 2-(1-((5-chloropyridin-2-yl)methyl)-5-methoxy-2-methyl-1H-indol-3-yl)-N-(2-methoxypyridin-4-yl)-2-oxoacetamide] | > 7.00 | D (D = greater than 1000 nM)
COc1cc(NC(=O)C(=O)c2c(C)n(Cc3ccc(Cl)cc3)c3cc(OC)c(Cl)cc23)ccn1 [Compound 80, 2-(5-chloro-1-(4-chlorobenzyl)-6-methoxy-2-methyl-1H-indol-3-yl)-N-(2-methoxypyridin-4-yl)-2-oxoacetamide] | > 7.00 | –
COc1ccc2c(c1)c(C(=O)C(=O)Nc1ccnc(OC)c1)c(C)n2Cc1ncc(F)cc1F [Compound 81, 2-(1-((3,5-difluoropyridin-2-yl)methyl)-5-methoxy-2-methyl-1H-indol-3-yl)-N-(2-methoxypyridin-4-yl)-2-oxoacetamide] | > 7.00 | D (D = greater than 1000 nM)
COc1ccc2c(c1)c(C(=O)C(=O)Nc1ccnc(OC)c1)c(C)n2Cc1ncc(Cl)cc1Cl [Compound 82, 2-(1-((3,5-dichloropyridin-2-yl)methyl)-5-methoxy-2-methyl-1H-indol-3-yl)-N-(2-methoxypyridin-4-yl)-2-oxoacetamide] | > 7.00 | D (D = greater than 1000 nM)
COc1ccc2c(c1)c(C(=O)C(=O)Nc1ccnc(OC)c1)c(C)n2Cc1ncccn1 [Compound 83, 2-(5-methoxy-2-methyl-1-(pyrimidin-2-ylmethyl)-1H-indol-3-yl)-N-(2-methoxypyridin-4-yl)-2-oxoacetamide] | 6.00 to 7.00 | –
COc1ccc2c(c1)c(C(=O)C(=O)Nc1ccnc(OC)c1)c(C)n2Cc1ccc(C)cn1 [Compound 84, 2-(5-methoxy-2-methyl-1-((5-methylpyridin-2-yl)methyl)-1H-indol-3-yl)-N-(2-methoxypyridin-4-yl)-2-oxoacetamide] | > 7.00 | D (D = greater than 1000 nM)
COc1cc(NC(=O)C(=O)c2c(C)n(Cc3ccc(F)cn3)c3ccc(C)cc23)ccn1 [Compound 85, 2-(1-((5-fluoropyridin-2-yl)methyl)-2,5-dimethyl-1H-indol-3-yl)-N-(2-methoxypyridin-4-yl)-2-oxoacetamide] | > 7.00 | D (D = greater than 1000 nM)
COc1ccc2c(c1)c(C(=O)C(=O)Nc1ccnc(OC)c1)c(C)n2Cc1ccc(Cl)nn1 [Compound 86, 2-(1-((6-chloropyridazin-3-yl)methyl)-5-methoxy-2-methyl-1H-indol-3-yl)-N-(2-methoxypyridin-4-yl)-2-oxoacetamide] | > 7.00 | D (D = greater than 1000 nM)
COc1ccc2c(c1)c(C(=O)C(=O)Nc1ccnc(OC)c1)c(C)n2Cc1ncc(Cl)cc1F [Compound 87, 2-(1-((5-chloro-3-fluoropyridin-2-yl)methyl)-5-methoxy-2-methyl-1H-indol-3-yl)-N-(2-methoxypyridin-4-yl)-2-oxoacetamide] | > 7.00 | D (D = greater than 1000 nM)
COc1cc(NC(=O)C(=O)c2c(C)n(Cc3ccc(Cl)cc3)c3cc(F)c(C)cc23)ccn1 [Compound 89, 2-(1-(4-chlorobenzyl)-6-fluoro-2,5-dimethyl-1H-indol-3-yl)-N-(2-methoxypyridin-4-yl)-2-oxoacetamide] | > 7.00 | C (C = between 100 nM and 1000 nM)
COc1cc(NC(=O)C(=O)c2c(C)n(Cc3ccc(Cl)cn3)c3cc(F)c(C)cc23)ccn1 [Compound 90, 2-(1-((5-chloropyridin-2-yl)methyl)-6-fluoro-2,5-dimethyl-1H-indol-3-yl)-N-(2-methoxypyridin-4-yl)-2-oxoacetamide] | > 7.00 | D (D = greater than 1000 nM)
COc1cc(NC(=O)C(=O)c2c(C)n(Cc3ccc(Cl)cc3F)c3cc(F)c(OC)cc23)ccn1 [Compound 91, 2-(1-(4-chloro-2-fluorobenzyl)-6-fluoro-5-methoxy-2-methyl-1H-indol-3-yl)-N-(2-methoxypyridin-4-yl)-2-oxoacetamide] | > 7.00 | –
COc1cc(NC(=O)C(=O)c2c(C)n(Cc3ccc(Cl)cc3Cl)c3cc(F)c(OC)cc23)ccn1 [Compound 92, 2-(1-(2,4-dichlorobenzyl)-6-fluoro-5-methoxy-2-methyl-1H-indol-3-yl)-N-(2-methoxypyridin-4-yl)-2-oxoacetamide] | > 7.00 | –
COc1cc(NC(=O)C(=O)c2c(C)n(Cc3ccc(Cl)cc3)c3cc(Cl)c(C)cc23)ccn1 [Compound 93, 2-(6-chloro-1-(4-chlorobenzyl)-2,5-dimethyl-1H-indol-3-yl)-N-(2-methoxypyridin-4-yl)-2-oxoacetamide] | > 7.00 | C (C = between 100 nM and 1000 nM)
COc1cc(NC(=O)C(=O)c2c(C)n(Cc3ccc(Cl)cn3)c3cc(Cl)c(C)cc23)ccn1 [Compound 94, 2-(6-chloro-1-((5-chloropyridin-2-yl)methyl)-2,5-dimethyl-1H-indol-3-yl)-N-(2-methoxypyridin-4-yl)-2-oxoacetamide] | > 7.00 | D (D = greater than 1000 nM)
